# Source: US20240190865A1, “T-TYPE CALCIUM CHANNEL ANTAGONISTS AND USES THEREOF” (THE BOARD OF TRUSTEES OF THE LELAND STANFORD JUNIOR …, priority 2021, published 2024)
# Entries after “also recorded” stand apart in the source; their conditions may differ. Like-named read-outs stand apart in the source and are kept apart here.
# How the values were obtained:
# Miro1 [1] = assay: Miro1 reduction after compound administration, Western blot; type: cell-based; details: Western blot method
# Miro1 [2] = assay: Miro1 fibroblast assay (CCCP challenge, Miro1 Western blot); type: cell-based; details: skin fibroblasts from human Parkinson's disease patients, CCCP 40 μM 24 hr; read-out: Fibroblast IC50 (nM), Miro1 reduction
# Experimental: Fibroblast Challenge and Miro1 Western blot: Skin fibroblasts were obtained from human Parkinson's disease (PD) patients. CCCP was applied at 40 μM for 24 hr to fibroblasts before cells were lysed in RIPA lysis buffer with 0.25 mM PMSF and protease inhibitors. Lysates were cleared by centrifugation at 17,000×g for 10 min at 4° C., and supernatants were run in an SDS-PAGE for Western blotting. After electrophoresis, nitrocellulose membranes (Bio-Rad) were used in wet transfer. Transferred membranes were first blocked for 1 hr in phosphate-buffered saline (PBS) containing 5% fat-free milk and 0.1% tween-20, and then incubated with the following primary antibodies: rabbit anti-Miro1 (HPA010687, Sigma-Aldrich) at 1:1,000, mouse anti-ATP50 (AB14730, Abcam) at 1:5,000, mouse anti-β-Actin (A00702, Genscript) at 1:3,000, or rabbit anti-VDAC (4661S, Cell Signaling Technology) at 1:1,000 at 4° C. overnight in blocking buffer. West Dura ECL reagents (GE Healthcare) were used for ECL immunoblotting with HRP-conjugated goat anti-mouse or anti-rabbit, anti-mouse IgG (Jackson ImmunoResearch Laboratories) at 1:5-10,000. Membranes were exposed to UltraCruz autoradiography films (Santa Cruz Biotechnology) and developed on a Konica Minolta SRX-101A developer.
# T-type calcium channel antagonists that could reduce Miro1 level were tested in the above PD fibroblast assay.
# mutant SNCA flies = assay: Parkinson's disease fly model, locomotion (negative geotaxis Performance Index); type: in vivo; details: PD fly model (mutant SNCA flies), 2.5 μM in feed for 10 days
# Experimental: The Parkinson's disease (PD) fly model was used as described in Hsieh C-H, Li L, Vanhauwaert R, Nguyen KT, Davis M D, Bu G, et al. Miro1 Marks Parkinson's Disease Subset and Miro1 Reducer Rescues Neuron Loss in Parkinson's Models. Cell Metab. 2019; 1131-1140. The average Performance Index (PI) (negative geotaxis) was evaluated. Briefly, adult flies were gently tapped to the base of a modified 25 ml climbing tube and their climbing progress was recorded after 45 sec. Three populations of flies were assessed, and for each population, flies were examined 3 times per experiment. The recorded values were used to calculate the average PI.
# Feeding PD Flies with a Calcium Channel Blocker Rescues Locomotion Deficits. Benidipine was tested in a PD fly model (mutant SNCA flies) and the flies examined for their locomotion.
# Cav3.2 = Cav3.2 (Homo sapiens (Human), UniProt O95180); assay: In vitro patch clamp assay (SyncroPatch 384PE); type: cell-based; details: HEK293 cells
# Chain of Cav3.2 (O95180 whole entry): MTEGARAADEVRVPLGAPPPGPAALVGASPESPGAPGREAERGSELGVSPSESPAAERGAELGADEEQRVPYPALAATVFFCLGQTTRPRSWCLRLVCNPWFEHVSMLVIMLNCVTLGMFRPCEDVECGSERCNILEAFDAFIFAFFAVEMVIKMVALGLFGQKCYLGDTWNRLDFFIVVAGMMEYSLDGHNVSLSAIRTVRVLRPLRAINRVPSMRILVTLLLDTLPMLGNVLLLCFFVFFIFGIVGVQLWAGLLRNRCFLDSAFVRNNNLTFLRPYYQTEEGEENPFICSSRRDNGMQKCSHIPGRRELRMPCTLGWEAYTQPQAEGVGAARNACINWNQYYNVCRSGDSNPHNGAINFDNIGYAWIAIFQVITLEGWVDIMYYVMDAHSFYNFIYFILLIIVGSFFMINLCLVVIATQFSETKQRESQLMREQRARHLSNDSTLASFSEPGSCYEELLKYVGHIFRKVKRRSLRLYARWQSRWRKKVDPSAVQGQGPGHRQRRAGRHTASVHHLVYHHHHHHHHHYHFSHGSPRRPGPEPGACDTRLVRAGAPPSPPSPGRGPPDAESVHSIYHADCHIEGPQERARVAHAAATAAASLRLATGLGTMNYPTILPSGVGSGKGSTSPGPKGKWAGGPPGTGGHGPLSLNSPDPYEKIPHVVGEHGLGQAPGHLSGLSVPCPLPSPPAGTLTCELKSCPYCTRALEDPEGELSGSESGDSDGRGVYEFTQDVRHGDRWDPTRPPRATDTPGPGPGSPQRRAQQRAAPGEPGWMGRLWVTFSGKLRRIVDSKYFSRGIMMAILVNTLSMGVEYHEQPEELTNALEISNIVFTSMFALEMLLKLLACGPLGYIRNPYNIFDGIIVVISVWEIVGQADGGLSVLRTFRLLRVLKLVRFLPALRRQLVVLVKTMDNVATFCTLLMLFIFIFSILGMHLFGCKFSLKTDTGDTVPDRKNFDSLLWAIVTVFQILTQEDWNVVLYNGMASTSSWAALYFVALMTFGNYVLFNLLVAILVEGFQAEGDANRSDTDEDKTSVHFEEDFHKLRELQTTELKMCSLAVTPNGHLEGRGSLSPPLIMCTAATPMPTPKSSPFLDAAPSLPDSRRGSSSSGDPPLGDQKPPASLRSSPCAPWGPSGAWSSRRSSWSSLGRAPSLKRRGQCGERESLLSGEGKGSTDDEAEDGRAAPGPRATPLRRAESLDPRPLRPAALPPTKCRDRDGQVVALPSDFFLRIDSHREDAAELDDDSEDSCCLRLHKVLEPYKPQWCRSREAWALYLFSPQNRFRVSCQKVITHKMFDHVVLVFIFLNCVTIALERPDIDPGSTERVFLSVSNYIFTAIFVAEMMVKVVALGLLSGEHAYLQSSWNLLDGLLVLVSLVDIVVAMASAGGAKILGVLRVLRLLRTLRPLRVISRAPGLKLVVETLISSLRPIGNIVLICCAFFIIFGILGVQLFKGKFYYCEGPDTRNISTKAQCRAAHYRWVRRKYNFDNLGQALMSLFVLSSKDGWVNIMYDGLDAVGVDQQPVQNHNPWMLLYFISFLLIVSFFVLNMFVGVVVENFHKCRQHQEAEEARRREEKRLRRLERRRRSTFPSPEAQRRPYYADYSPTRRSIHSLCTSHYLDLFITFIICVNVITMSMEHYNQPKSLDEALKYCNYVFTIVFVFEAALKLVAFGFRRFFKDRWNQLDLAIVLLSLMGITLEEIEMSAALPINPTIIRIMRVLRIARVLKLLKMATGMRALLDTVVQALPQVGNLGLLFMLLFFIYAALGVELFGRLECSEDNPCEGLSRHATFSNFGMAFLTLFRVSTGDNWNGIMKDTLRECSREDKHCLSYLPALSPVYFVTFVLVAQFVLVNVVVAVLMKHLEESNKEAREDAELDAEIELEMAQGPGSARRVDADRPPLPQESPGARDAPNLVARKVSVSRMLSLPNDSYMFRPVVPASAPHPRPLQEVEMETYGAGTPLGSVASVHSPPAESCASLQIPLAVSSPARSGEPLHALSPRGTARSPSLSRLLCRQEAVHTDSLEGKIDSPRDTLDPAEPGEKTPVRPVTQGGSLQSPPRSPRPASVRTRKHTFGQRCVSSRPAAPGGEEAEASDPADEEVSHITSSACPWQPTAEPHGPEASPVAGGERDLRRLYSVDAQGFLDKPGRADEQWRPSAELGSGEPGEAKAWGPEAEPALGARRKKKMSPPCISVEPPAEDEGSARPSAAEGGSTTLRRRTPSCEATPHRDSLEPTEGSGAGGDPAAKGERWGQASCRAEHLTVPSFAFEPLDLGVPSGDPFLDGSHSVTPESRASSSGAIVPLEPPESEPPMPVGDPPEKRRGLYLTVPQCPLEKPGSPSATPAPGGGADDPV
# Experimental: Patch clamp assays were performed at Charles River. HEK293 cells were cultured in Dulbecco's Modified Eagle Medium/Nutrient Mixture F-12 (D-MEM/F-12) supplemented with 10% fetal bovine serum, 100 U/mL penicillin G sodium, 100 μg/mL streptomycin sulfate and 500 μg/mL G418. Before testing, cells in culture dishes were washed twice with Hank's Balanced Salt Solution, treated with Accutase™ and re-suspended in the culture media (˜20×10^6 cells in 20 mL). Cells in suspension were allowed to recover for 10 minutes in tissue culture incubator set at 37° C. in a humidified 95% air: 5% CO2 atmosphere. Immediately before use in the SyncroPatch 384PE system (SP384PE), the cells were washed twice in extracellular buffer (HB-PS) to remove the culture medium and re-suspended in 20 mL of HB-PS. Extracellular buffer was loaded into the wells of Nanion 384-well Patch Clamp (NPC-384, 4×M) chip (60 μL per well). Then, cell suspension was pipetted into the wells (20 μL per well) of the chip. After establishment of the whole-cell configuration, membrane currents were recorded using patch clamp amplifier in the SP384PE system.
# Miro1 [3] = assay: Rescue of Miro1 deficit in P301L tau donor fibroblasts (FCCP challenge, Miro1 immunocytochemistry); type: cell-based, human
# Experimental: The compound of Example 15 rescued Miro1 deficit in P301L tau donor at risk for developing frontotemporal dementia (FTD). Method: A fibroblast was obtained from a non-symptomatic at risk carrier of the pathogenic P301L mutation in the MAPT/Tau gene, a highly penetrant risk factor for frontotemporal dementia (FTD). NINDS line ID: ND32956, collected from a person. Fibroblasts were seeded into 96-well assay plates. After 24 hours, cells were pre-treated with either vehicle (DMSO) or a dose-response of Example 15 compound. After 6 hrs of pre-treatment, cells were challenged with the mitochondrial stressor FCCP for 14 hours. After 14 hours of challenge, cells were fixed in paraformaldehyde and a standard immunocytochemistry protocol was followed to stain for Miro1 using a specific antibody. Images were acquired on the Yokogawa CQ1 confocal high-content imaging platform and the signal from the Miro1 antibody was quantified. Average Miro1 signal intensity was quantified from ˜400 cells/condition.
# Similar to the method illustrated in Example 64, a Miro1 ratio could be calculated based on the Miro1 level after treatment of fibroblasts with FCCP compared with a control Miro1 level measured from fibroblasts that were not treated.
# [4] = In vivo pharmacokinetics in rats; set-up: species or system Sprague-Dawley rats
# Experimental: Fasted male Sprague-Dawley rats between 6 to 8 weeks of age were dosed with calcium channel antagonists of the present disclosure to evaluate in vivo pharmacokinetics. Each compound was formulated in 5% DMAC+5% Solutol HS15+90% Saline to yield a solution for dosing. The rats were dosed intravenously (IV) at 1 mg/kg (1 mL/kg) via foot dorsal vein (N=3) or orally (PO) at 10 mg/kg (10 mL/kg) via oral gavage (N=3).
# Blood collection: The animals were restrained manually, and approximately 200 μL blood/time point was collected into pre-cooled EDTA-K2 tubes via jugular vein and put on wet ice. The blood sample was centrifuged at 4° C. (2000 g, 5 min) to obtain plasma within 15 min after sample collection. The plasma samples were stored at approximately −70° C. until analysis.
# [5] = In vivo pharmacokinetics in dogs; details: dog, plasma; male beagle dogs, 1 mg/kg IV and 3 mg/kg PO; read-out: oral bioavailability (F)
# Experimental: In vivo experiments were performed in dogs to evaluate certain calcium channel antagonists of the present disclosure. For instance, Example 15 was evaluated in adult male non-naïve beagle dogs (N=6), 8-10 kg, at 1 mg/kg IV and 3 mg/kg PO. The dogs were given free access to food and water for the IV group, were fasted overnight and fed 4 hr post-dosing for the PO group. The IV group was administered Example 15 via cephalic vein injection. The PO group was administered 3 mg/kg Example 15 by oral gavage. Dosing formulations were prepared at 1 mg/mL in 5% dimethylacetamide, 5% Solutol HS 15, 90% saline prior to use.
# Blood collection: The animals were restrained manually, and approximately 0.5 mL blood/time point was collected via cephalic vein into pre-cold EDTA-K2 tubes. Blood samples were chilled on wet ice until centrifuged at 4° C. to obtain plasma within 15 minutes of sample collection.
# [6] = Brain penetration in mice; type: in vivo; details: male C57BL/6 mice; for concentration at 4 h: mouse, brain, 4 hours post-dose
# Experimental: Male C57BL/6 mice at 6-8 weeks were dosed once with Example 15 in two experiments (N=3 per timepoint) at 1 mg/kg IV or 10 mg/kg PO, and then compound concentration was measured at various times up to 24 hours. Dosing solutions were prepared of Example 15 in 0.2 mg/mL (IV) or 1 mg/mL (PO) in 5% dimethylacetamide, 5% Solutol HS 15, 90% saline solution prior to use. Compound was administered either IV by tail vein injection or PO by oral gavage.
# Blood collection: The animal was restrained manually at the designated time points, approximately 110 μL of blood sample was collected via facial vein into K2EDTA tubes. Blood sample was put on ice and centrifuged at 2000 g for 5 mins to obtain plasma sample within 15 minutes.
# Brain collection: After the blood collection, the animals were euthanized via CO2. The whole brain was collected, rinsed with cold saline, dried on filtrate paper, weighed, and snap frozen by placing into dry-ice.
# The brain penetrance of Example 15 was calculated using mouse plasma/brain PK and relative mouse plasma and brain homogenate binding. […] For instance, at 4 hours post-dose: Example 15 brain concentration>100 ng/mL (IV); Example 15 brain concentration>1000 ng/mL (PO).
# [7] = rat, compared to Example 16 of U.S. Pat. No. 7,875,636
# [8] = rat, plasma, male Sprague-Dawley rats, 1 mg/kg IV, read-out: Mean (ng/mL) after 1 mg/kg IV dose
# [9] = rat, plasma, male Sprague-Dawley rats, 10 mg/kg PO, read-out: Mean (ng/mL) after 10 mg/kg PO dose
compound,measurement,setting,value
"COC(=O)C1=C(C)NC(C)=C(C(=O)OC2CCCN(Cc3ccccc3)C2)C1c1cccc([N+](=O)[O-])c1 (centres unmarked) [Benidipine, 1,4-dihydro-2,6-dimethyl-4-(3-nitrophenyl)-3,5-pyridine-dicarboxylic acid methyl 1-(phenylmethyl)-3-piperidinyl ester]",Miro1 Lowering,Miro1 [1],YES
same,IC50,Miro1 [2],2560 nM
same,locomotor decline / locomotion deficits,mutant SNCA flies,significantly improved locomotor decline
same,locomotor decline / locomotion deficits,mutant SNCA flies; listed as benidipine,rescuing locomotor deficits
"C[C@@H](NC(=O)Cc1ccc(C(F)(F)F)cc1)c1cc2cnn(CC(F)(F)F)c2cn1 [Example 15, (R)—N-(1-(1-(2,2,2-trifluoroethyl)-1H-pyrazolo[3,4-c]pyridin-5-yl)ethyl)-2-(4-(trifluoromethyl)phenyl)acetamide]",IC50,Cav3.2,0.163 µM
same,rescue of Miro1 deficit,Miro1 [3]; P301L tau donor fibroblasts in response to FCCP,completely rescued Miro1 reduction deficit; also recorded: dose-dependent rescue of Miro1 deficit
same,IC50,"Miro1 [3]; P301L tau donor fibroblasts, 6 hrs pre-treatment, FCCP 14 hours, read-out: IC50, rescue of Miro1 reduction deficit",0.584 µM
same,Mean (ng/mL) after 1 mg/kg IV dose,"[4]; male Sprague-Dawley rats, 1 mg/kg IV, 24 hr, BQL = below quantitation level",BQL
same,AUC,[4]; [7],higher
same,Cmax,[4]; [7],higher
same,half-life (t1/2),[4]; [7],about two-fold higher
same,concentration at 0.25 h,[4]; [8],890 ng/mL
same,concentration at 0.5 h,[4]; [8],764 ng/mL
same,concentration at 1 h,[4]; [8],621 ng/mL
same,concentration at 2 h,[4]; [8],423 ng/mL
same,concentration at 4 h,[4]; [8],193 ng/mL
same,concentration at 8 h,[4]; [8],26.3 ng/mL
same,concentration at 12 h,[4]; [8],4.42 ng/mL
same,concentration at 0.25 h,[4]; [9],4110 ng/mL
same,concentration at 0.5 h,[4]; [9],4510 ng/mL
same,concentration at 1 h,[4]; [9],4710 ng/mL
same,concentration at 2 h,[4]; [9],5440 ng/mL
same,concentration at 4 h,[4]; [9],4070 ng/mL
same,concentration at 8 h,[4]; [9],1240 ng/mL
same,concentration at 12 h,[4]; [9],329 ng/mL
same,concentration at 24 h,"[4]; rat, plasma, male Sprague-Dawley rats, 10 mg/kg PO, 24 hr, read-out: Mean (ng/mL) after 10 mg/kg PO dose",2.49 ng/mL
same,bioavailability,[5],> 50%
same,brain penetration,[6]; IV and PO experiments,measurable brain penetration
same,concentration at 4 h,[6]; 1 mg/kg IV,> 0.1 µg/mL
same,concentration at 4 h,[6]; 10 mg/kg PO,> 1 µg/mL
"CC(C)c1ccc(CC(=O)N[C@H](C)c2ccc(OCC(F)(F)F)cn2)cc1 [MK-8998, (R)-2-(4-Isopropylphenyl)-N-(1-(5-(2,2,2-trifluoroethoxy)pyridin-2-yl)ethyl)acetamide]",Miro1 Lowering,Miro1 [1],YES
same,IC50,Miro1 [2],693 nM
